According to patent US20110207729A1, “BICYCLIC ACYLGUANIDINE DERIVATIVE” (ASTELLAS PHARMA INC., priority 2007, published 2011):
pKi: −log10 of the molar value. Structures can show the parent of a compound that is named as a salt.

Target: T1, human 5-HT5A receptor (Homo sapiens, UniProt P47898)
T1 construct: expressed in transfected cells; membrane preparation
Assay: Test on a human 5-HT5A receptor binding inhibition ([3H]5-CT)
Conditions: membrane from HEK293 cells expressing human 5-HT5A receptor; Ki calculated from IC50 and Kd 4.95 nM
Description: Acquisition of HEK293 cells for forced expressions of a human 5-HT5A receptor
The ORF (open reading frame; protein coding region) of a human 5-HT5A receptor (Genbank AF498985) was cloned from a human hippocampus cDNA library, and then inserted into a pCR2.1 vector (Invitrogen), and Escherichia coli containing the plasmid was cultured in a large amount. Next, the full-length cDNA sequence of the human 5-HT5A receptor was analyzed, and recombined into a pcDNA3.1 vector (Invitrogen) as an expression vector and cultured in a large amount. HEK293 established cells (ATCC) derived from the human fetal kidney were seeded, the expression plasmid (1 μg) obtained above were added thereto with LIPOFECTAMINE 2000 (Invitrogen; 2 μl), the gene was transfected into HEK293 cells, and the expression cells were screened with a drug-resistant marker, Geneticin (G418 sulfate 500 μg/ml; Kanto Chemical Co., Inc.). Thus prepared recombinant cells which express the gene were cultured in a medium containing D-MEM (Dulbecco's modified eagle medium, Sigma), 10% FCS (Fetal calf serum: fetal bovine serum), 1% Pc./Sm (Penicillin/Streptomycin, Invitrogen), and 500 μg/ml G418 for 3 days. These experimental operations follow an manual for gene operation experiment and an instruction appended in a reagent, and the like, such as a known method (Sambrook, J. et al, Molecular Cloning—A Laboratory Manual”, Cold Spring Harabor laboratory, NY, 1989).
(1) Preparation of a Membrane from HEK293 Cells for Forced Expressions of a Human 5-HT5A Receptor
HEK293 cells for forced expressions of a human 5-HT5A receptor were cultured in a F500 plate, and scraped with a scraper. After centrifugation, a precipitate was collected, and an incubation buffer (50 mM Tris (HCl) (pH 7.4), 10 mM MgSO4, and 0.5 mM EDTA (ethylenediamine tetraacetic acid)) were added thereto. After homogenization, it was further centrifuged, and the precipitate was added with the incubation buffer, followed by thoroughly suspending. This operation was repeated, and a protein concentration was measured, thereby completing the preparation of a membrane.
(2) Test on a Human 5-HT5A Receptor Binding Inhibition
A solution of a compound to be tested and 100 μM 5-CT (5-carboxamidetriptamine) in DMSO was added to a 96-well plate at 2 μl/well, and suspended in an incubation buffer, and a membrane from HEK293 cells for forced expressions of a human 5-HT5A receptor prepared at 200 μg/ml was added at 100 μl/well. After incubation at room temperature for 15 minutes, a [^3H]5-CT solution (2 nM [^3H]5-CT, incubation buffer) was added thereto at 100 μl/well.
Separately, 100 μl of the solution was distributed into a liquid scintillation vial, and 2 ml of Aquasol II (registered trademark) was added thereto, followed by stirring. Then, a radioactivity was measured by a liquid scintillation counter. It was incubated at 37° C. for 60 minutes. The reaction mixture was sucked into 96-well GF/C filter plate that had been pre-treated with 0.2% polyethyleneimine, and washed six times with an ice-cooled, 50 mM Tris (pH 7.5) buffer. The GF/C filter plate was dried.
Microscint TMPS (registered trademark) was added thereto at 40 μl/well. A radioactivity remaining on the GF/C filter plate was measured by a top counter.
The [^3H]5-CT binding inhibiting activity by the compound to be tested in each experiment was determined as an IC50 value with a radioactivity upon addition of DMSO alone being 0% inhibition, and a radioactivity upon addition of 1 μM 5-CT being 100% inhibition. Separately, a Ki value was calculated from the Kd value of the [^3H]5-CT determined from Scatchard analysis, by the following equation.
Ki=IC50(1+Concentration of ligands added/Kd(4.95 nM))

T1 sequence (P47898 whole entry): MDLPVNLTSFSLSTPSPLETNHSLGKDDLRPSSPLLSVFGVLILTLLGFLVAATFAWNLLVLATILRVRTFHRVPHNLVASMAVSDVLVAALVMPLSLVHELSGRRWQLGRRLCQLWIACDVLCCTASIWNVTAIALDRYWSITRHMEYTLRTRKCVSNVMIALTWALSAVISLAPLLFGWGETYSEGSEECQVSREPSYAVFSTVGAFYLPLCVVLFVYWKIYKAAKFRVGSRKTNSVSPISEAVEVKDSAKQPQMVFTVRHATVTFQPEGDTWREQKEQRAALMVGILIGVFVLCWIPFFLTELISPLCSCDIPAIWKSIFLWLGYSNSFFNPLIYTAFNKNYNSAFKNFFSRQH

Compound	pKi
NC(N)=NC(=O)c1ccc2c(c1)C(c1ccccc1)=C(F)CO2 [Example 1-14]	9.01
NC(N)=NC(=O)c1ccc2c(c1)C(c1ccc(C(F)(F)F)cc1C(F)(F)F)=CCO2 [Example 1-83]	6.52 to 7.52
CC1C=C(c2ccc(C#N)cc2)c2cc(C(=O)N=C(N)N)ccc2O1 (stereo not shown) [Example 1-72]	7.52 to 8.52
CC1(C)C=C(c2ccc(F)cc2F)c2cc(C(=O)N=C(N)N)ccc2O1 [Example 1-105]	7.52 to 8.52
COc1ccc(F)cc1C1=CCOc2ccc(C(=O)N=C(N)N)cc21 [Example 1-50]	7.52 to 8.52
N#Cc1cc(F)ccc1C1=CCOc2ccc(C(=O)N=C(N)N)cc21 [Example 1-48]	7.52 to 8.52
N/C(=N\C(=O)c1ccc2c(c1)C(c1c(F)cccc1F)=CCO2)NCC1CC1 [Example 1-76]	7.52 to 8.52
COc1ccccc1C1=CCOc2c(F)cc(C(=O)N=C(N)N)cc21 [Example 1-86]	7.52 to 8.52
Cc1cc(Cl)ccc1C1=CCOc2ccc(C(=O)N=C(N)N)cc21 [Example 1-92]	8.52 to 9.52
NC(N)=NC(=O)c1ccc2oc(=O)cc(-c3c(F)cc(F)cc3F)c2c1 [Example 1-104]	6.52 to 7.52
CC1C=C(c2cccnc2)c2cc(C(=O)N=C(N)N)ccc2O1 (stereo not shown) [Example 1-128]	6.52 to 7.52
COc1ccccc1C1=CC(C)(C)Oc2ccc(C(=O)N=C(N)N)cc21 [Example 1-01, N-(diaminomethylene)-4-(2-methoxyphenyl)-2,2-dimethyl-2H-chromene-6-carboxamide hydrochloride]	6.52 to 7.52
Cn1cc(C2=CCOc3ccc(C(=O)N=C(N)N)cc32)cn1 [Example 1-66]	6.52 to 7.52
N#Cc1ccc(C2=CCOc3c(F)cc(C(=O)N=C(N)N)cc32)cc1 [Example 1-87]	6.52 to 7.52
COc1cccc(C#N)c1C1=CC(C)Oc2ccc(C(=O)N=C(N)N)cc21 (stereo not shown) [Example 1-165]	6.52 to 7.52
NC(N)=NC(=O)c1ccc2c(c1)C(c1cccc(F)c1Cl)=CCO2 [Example 1-102]	8.52 to 9.52
CC1C=C(c2ccsc2)c2cc(C(=O)N=C(N)N)ccc2O1 (stereo not shown) [Example 1-167]	7.52 to 8.52
NC(N)=NC(=O)c1ccc2c(c1)C(c1ccc(F)cc1Cl)=CCO2 [Example 1-55]	8.52 to 9.52
CC1(C)C=C(c2ccccc2)c2cc(C(=O)N=C(N)N)ccc2O1 [Example 1-04]	6.52 to 7.52
CC1C=C(c2ccncc2)c2cc(C(=O)N=C(N)N)ccc2O1 (stereo not shown) [Example 1-133]	6.52 to 7.52
NC(N)=NC(=O)c1ccc2c(c1)C(c1c(F)cc(F)cc1F)=CC1(CCCC1)O2 [Example 1-121]	7.52 to 8.52
NC(N)=NC(=O)c1ccc2c(c1)C(c1ccc(F)c(Cl)c1)=CCO2 [Example 1-80]	7.52 to 8.52
COc1cc(F)c(F)cc1C1=CCOc2ccc(C(=O)N=C(N)N)cc21 [Example 1-79]	7.52 to 8.52

The remaining lines, values ahead:

pKi	Compound
6.52 to 7.52	Cn1cc(C2=CCCc3ccc(C(=O)N=C(N)N)cc32)cn1 [Example 2-77]
7.52 to 8.52	CN(C)Cc1ccc(C2=CCCc3ccc(C(=O)N=C(N)N)cc32)cc1 [Example 2-32]
7.52 to 8.52	N#Cc1ccc(C2=CCCOc3ccc(C(=O)N=C(N)N)cc32)cc1 [Example 3-13]
8.52 to 9.52	N#Cc1ccc(C2=CCCc3ccc(C(=O)N=C(N)N)cc32)cc1 [Example 2-25]
6.52 to 7.52	N#Cc1cc(Cl)ccc1C1=CCCc2ccc(C(=O)N=C(N)N)cc21 [Example 2-185]
8.52 to 9.52	CC1=C(c2ccc(Cl)cc2Cl)c2cc(C(=O)N=C(N)N)ccc2CC1 [Example 2-144]
7.52 to 8.52	COc1c(F)cccc1-c1csc2ccc(C(=O)N=C(N)N)cc12 [Example 3-27]
8.52 to 9.52	Cc1sc2ccc(C(=O)N=C(N)N)cc2c1-c1ccccc1F [Example 3-35]
6.52 to 7.52	COc1cccc(C#N)c1C1=CCCc2ccc(C(=O)N=C(N)N)cc21 [Example 2-66]
6.52 to 7.52	NC(N)=NC(=O)c1ccc2c(c1)C(c1ccccc1Oc1ccccc1)=CCC2 [Example 2-33]
6.52 to 7.52	COc1ccc(C2=CCCc3ccc(C(=O)N=C(N)N)cc32)c(C#N)c1 [Example 2-68]
7.52 to 8.52	COc1cc(F)c(C2=CCCc3ccc(C(=O)N=C(N)N)cc32)c(F)c1 [Example 2-94]
7.52 to 8.52	COc1cc(F)cc(F)c1C1=CCCc2ccc(C(=O)N=C(N)N)cc21 [Example 2-179]
7.52 to 8.52	COc1ccccc1C1=C(C)CCc2ccc(C(=O)N=C(N)N)cc21 [Example 2-58]
7.52 to 8.52	NC(N)=NC(=O)c1ccc2scc(-c3ccccc3)c2c1 [Example 3-07]
8.52 to 9.52	COc1cc(C#N)ccc1C1=CCCc2ccc(C(=O)N=C(N)N)cc21 [Example 2-55]
6.52 to 7.52	Cn1cc(C2=CCCc3ccc(C(=O)N=C(N)N)cc32)ccc1=O [Example 2-191]
7.52 to 8.52	COc1ccc(-c2csc3ccc(C(=O)N=C(N)N)cc23)c(OC)c1 [Example 3-20]
8.52 to 9.52	NC(N)=NC(=O)c1ccc2c(c1)C(c1cccs1)=CCC2 [Example 2-21]
7.52 to 8.52	COc1ccc(C2=CCCc3ccc(C(=O)N=C(N)N)cc32)c(C(F)(F)F)c1 [Example 2-165]
7.52 to 8.52	NC(N)=NC(=O)c1ccc2c(c1)C(c1ccc3nccn3c1)=CCC2 [Example 2-171]
7.52 to 8.52	CSc1ccccc1C1=CCCc2ccc(C(=O)N=C(N)N)cc21 [Example 2-82]

pKi	Compound
8.52 to 9.52	N#Cc1ccc(C2=C(F)CCc3ccc(C(=O)N=C(N)N)cc32)cc1 [Example 2-91]
7.52 to 8.52	NC(N)=NC(=O)c1ccc2c(c1)C(c1ccccc1)=CCCO2 [Example 3-10]
8.52 to 9.52	NC(N)=NC(=O)c1ccc2c(c1)C(c1c(F)cc(F)cc1F)=CCS2 [Example 3-16]
8.52 to 9.52	NC(N)=NC(=O)c1ccc2c(c1)C(c1ccccc1F)=CCC2 [Example 2-09]
6.52 to 7.52	CC(C)n1cc(C2=CCCc3ccc(C(=O)N=C(N)N)cc32)cn1 [Example 2-167]
8.52 to 9.52	NC(N)=NC(=O)c1ccc2c(c1)C(c1ccncc1F)=CCC2 [Example 2-158]
8.52 to 9.52	COc1ccc(C2=C(C)CCc3ccc(C(=O)N=C(N)N)cc32)c(C)c1 [Example 2-170]
8.52 to 9.52	NC(N)=NC(=O)c1ccc2c(c1)C(c1ccc(Cl)cc1F)=CCC2 [Example 2-67]
6.52 to 7.52	NC(N)=NC(=O)c1ccc2scc(-c3ccncc3)c2c1 [Example 3-37]
6.52 to 7.52	CC1(C)CC=C(c2ccccc2)c2cc(C(=O)N=C(N)N)ccc21 [Example 2-80]
6.52 to 7.52	NC(N)=NC(=O)c1ccc2scc(-c3cccnc3)c2c1 [Example 3-32]
7.52 to 8.52	CN(C)Cc1cccc(C2=CCCc3ccc(C(=O)N=C(N)N)cc32)c1 [Example 2-38]
7.52 to 8.52	Cn1nccc1C1=CCCc2ccc(C(=O)N=C(N)N)cc21 [Example 2-81]
6.52 to 7.52	CC1(C)CCC(c2c(F)cc(F)cc2F)c2cc(C(=O)N=C(N)N)ccc21 (stereo not shown) [Example 3-34]
8.64	CC1=C(c2ccccc2)c2cc(C(=O)N=C(N)N)ccc2CC1 [Example 2-56]
6.52 to 7.52	NC(N)=NC(=O)c1ccc2c(c1)C(c1nccs1)=CCC2 [Example 2-93]
7.52 to 8.52	NC(N)=NC(=O)c1ccc2c(c1)C(c1ccco1)=CCC2 [Example 2-20]
6.52 to 7.52	NC(N)=NC(=O)c1ccc2c(c1)C(c1cnccn1)=CCC2 [Example 2-86]
8.52 to 9.52	NC(N)=NC(=O)c1ccc2scc(-c3ccc(F)cc3F)c2c1 [Example 3-30]
7.52 to 8.52	NC(N)=NC(=O)c1ccc2c(c1)C(c1c(Cl)cncc1Cl)=CCC2 [Example 2-190]
8.52 to 9.52	NC(N)=NC(=O)c1ccc2c(c1)C(c1ccc(F)cc1F)=CCC2 [Example 2-101]
7.52 to 8.52	COc1ccc(F)cc1-c1csc2ccc(C(=O)N=C(N)N)cc12 [Example 3-28]
